Test results reported in ChEMBL document CHEMBL1201862, “PubChem BioAssay data set” (2004).
Calls of active or inactive are those of the source.

Experiments:
HEK293 [1] = assay: NOD1 signaling inhibitors, primary screen, cell-based, luminescence, uHTS (AID 1578); assay type: functional; details: Homo sapiens
[2] = inhibitors of SNCA 5'UTR-driven reporter translation, confirmation, H4 neuroglioma cells, luminescence (AID 1988); assay type: functional, cell-based
[3] = molecular target: Dual specificity tyrosine-phosphorylation-regulated kinase 1A (Rattus norvegicus, UniProt Q63470); assay type: biochemical, Homo sapiens
HEK293 [4] = assay: cells; assay type: functional, cell-based; details: Homo sapiens
[5] = Luminescence Cell-Based Dose Response HTS to Identify Inhibitors of 5'UTR Stem-Loop Driven Prion Protein mRNA Translation in H4 Neuroglioblastoma Cells. [Related pubchem assays: 1827 (Project Summary), 1813 (Primary HTS)]; assay type: functional
[6] = molecular target: Macrophage colony-stimulating factor 1 receptor (Homo sapiens, UniProt P07333); assay type: functional;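 further: value comes from the Navigating the Kinome screening panel, CSF1R member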
[7] = molecular target: Non-receptor tyrosine-protein kinase TYK2 (Homo sapiens, UniProt P29597); assay type: functional
[8] = molecular target: Casein kinase I isoform gamma-1 (Homo sapiens, UniProt Q9HCP0); assay type: functional;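 further: measured as the CSNK1G1 member of a kinome profiling panel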
[9] = molecular target: Serine/threonine-protein kinase PLK4 (Homo sapiens, UniProt O00444); assay type: functional;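 further: PLK4 measured as one member of a kinome-wide kinase profiling panel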
[10] = molecular target: Glycogen synthase kinase-3 alpha (Homo sapiens, UniProt P49840); assay type: functional;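 further: GSK3A result taken from a broad kinome-wide kinase panel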
[11] = molecular target: Tyrosine-protein kinase FRK (Homo sapiens, UniProt P42685); assay type: functional;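 further: FRK tested as one member of a kinome panel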
Activated CDC42 kinase 1 = Activated CDC42 kinase 1 (Homo sapiens, UniProt Q07912); assay: Navigating the Kinome. Panel member name: ACK1; assay type: functional
[12] = molecular target: Mitogen-activated protein kinase 1 (Homo sapiens, UniProt P28482); assay type: functional
Aurora kinase B = Aurora kinase B (Homo sapiens, UniProt Q96GD4); assay type: functional
[13] = molecular target: G protein-coupled receptor kinase 5 (Homo sapiens, UniProt P34947); assay: Navigating the Kinome. Panel member name: GPRK5; assay type: functional
[14] = molecular target: Dual specificity tyrosine-phosphorylation-regulated kinase 1A (Homo sapiens, UniProt Q13627); assay type: functional;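 further: measured against DYRK1A as one member of a broad kinome profiling panel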
[15] = molecular target: Protein kinase C delta type (Homo sapiens, UniProt Q05655); assay type: functional
[16] = molecular target: 5'-AMP-activated protein kinase catalytic subunit alpha-1 (Homo sapiens, UniProt Q13131); assay type: functional
[17] = molecular target: Mitogen-activated protein kinase 9 (Homo sapiens, UniProt P45984); assay type: functional;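 further: value from a kinome panel profiling assay, MAPK9 panel entry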
[18] = molecular target: Tyrosine-protein kinase Srms (Homo sapiens, UniProt Q9H3Y6); assay type: functional;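 further: SRMS measured as one member of a kinome-wide kinase profiling panel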
[19] = molecular target: Serine/threonine-protein kinase PAK 1 (Homo sapiens, UniProt Q13153); assay type: functional
[20] = molecular target: MAP kinase-activated protein kinase 3 (Homo sapiens, UniProt Q16644); assay type: functional;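 further: value comes from a kinome-wide profiling panel in which MAPKAPK3 is one of the panel members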
[21] = molecular target: Tyrosine-protein kinase SYK (Homo sapiens, UniProt P43405); assay type: functional
[22] = molecular target: Dual specificity tyrosine-phosphorylation-regulated kinase 3 (Homo sapiens, UniProt O43781); assay type: functional;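 further: measured as one member of a broad kinase panel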
[23] = molecular target: Serine/threonine-protein kinase TBK1 (Homo sapiens, UniProt Q9UHD2); assay: Navigating the Kinome. Panel member name: TBK1; assay type: functional
[24] = system: Streptococcus sp. 'group A'; assay: growth inhibition of control SK(-) GAS strain, dose response, counter-screen for streptokinase expression inhibitor project, luminescence, kanamycin, BacTiterGlo, confirmation (AID 1900); assay type: functional, organism-based
[25] = cytotoxicity toward Colo320 cells – cell-based, CellTiter-Glo luminescence, IC50, dose response (AID 1117334); assay type: functional; details: COLO 320
[26] = RKO cell viability reduction, dose response, CellTiter-Glo luminescence (AID 1117322); assay type: functional
[27] = cytotoxicity toward HT-29 cells – cell-based, CellTiter-Glo luminescence, IC50, dose response (AID 1117330); assay type: functional
Streptococcus = assay: Group A Streptococcus viability loss, dose response, counter-screen for streptokinase expression inhibitor project, luminescence, BacTiterGlo (AID 1915); assay type: functional, organism-based;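 further: potency for reduction of bacterial viability or growth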

Sequence of Protein kinase C delta type (Q05655 whole entry): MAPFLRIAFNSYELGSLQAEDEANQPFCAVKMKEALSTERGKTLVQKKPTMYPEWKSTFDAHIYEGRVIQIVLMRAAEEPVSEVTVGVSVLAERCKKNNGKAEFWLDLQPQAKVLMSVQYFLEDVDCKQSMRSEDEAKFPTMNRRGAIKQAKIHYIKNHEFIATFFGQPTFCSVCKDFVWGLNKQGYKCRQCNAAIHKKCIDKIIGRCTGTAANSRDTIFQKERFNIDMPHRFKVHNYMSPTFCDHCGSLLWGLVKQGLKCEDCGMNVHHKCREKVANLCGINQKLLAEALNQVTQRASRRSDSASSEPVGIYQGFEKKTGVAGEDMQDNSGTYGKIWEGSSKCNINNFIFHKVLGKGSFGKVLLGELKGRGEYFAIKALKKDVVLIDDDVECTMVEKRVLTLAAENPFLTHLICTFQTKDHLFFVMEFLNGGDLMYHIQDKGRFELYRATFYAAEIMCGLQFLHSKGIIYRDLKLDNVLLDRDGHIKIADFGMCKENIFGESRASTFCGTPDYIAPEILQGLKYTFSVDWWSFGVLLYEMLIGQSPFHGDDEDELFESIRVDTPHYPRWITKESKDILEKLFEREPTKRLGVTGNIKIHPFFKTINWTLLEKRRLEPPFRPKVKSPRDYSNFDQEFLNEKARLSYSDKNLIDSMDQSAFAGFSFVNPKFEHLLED
Sequence of G protein-coupled receptor kinase 5 (P34947 whole entry): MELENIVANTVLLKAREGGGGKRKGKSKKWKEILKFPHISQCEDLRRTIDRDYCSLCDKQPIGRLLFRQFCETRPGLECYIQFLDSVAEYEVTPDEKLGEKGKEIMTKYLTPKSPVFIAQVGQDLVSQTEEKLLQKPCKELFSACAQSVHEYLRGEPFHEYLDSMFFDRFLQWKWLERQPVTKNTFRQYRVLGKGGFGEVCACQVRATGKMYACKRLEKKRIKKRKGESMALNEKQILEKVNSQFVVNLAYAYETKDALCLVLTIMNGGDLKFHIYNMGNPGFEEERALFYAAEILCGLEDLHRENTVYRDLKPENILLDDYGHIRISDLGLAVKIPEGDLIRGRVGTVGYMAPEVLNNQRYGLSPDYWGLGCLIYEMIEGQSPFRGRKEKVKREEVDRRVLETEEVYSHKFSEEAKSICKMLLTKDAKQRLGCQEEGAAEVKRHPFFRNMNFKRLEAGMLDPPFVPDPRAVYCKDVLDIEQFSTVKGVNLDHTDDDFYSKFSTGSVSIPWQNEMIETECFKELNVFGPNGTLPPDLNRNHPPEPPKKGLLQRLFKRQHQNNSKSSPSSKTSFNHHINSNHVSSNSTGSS
Sequence of 5'-AMP-activated protein kinase catalytic subunit alpha-1 (Q13131 whole entry): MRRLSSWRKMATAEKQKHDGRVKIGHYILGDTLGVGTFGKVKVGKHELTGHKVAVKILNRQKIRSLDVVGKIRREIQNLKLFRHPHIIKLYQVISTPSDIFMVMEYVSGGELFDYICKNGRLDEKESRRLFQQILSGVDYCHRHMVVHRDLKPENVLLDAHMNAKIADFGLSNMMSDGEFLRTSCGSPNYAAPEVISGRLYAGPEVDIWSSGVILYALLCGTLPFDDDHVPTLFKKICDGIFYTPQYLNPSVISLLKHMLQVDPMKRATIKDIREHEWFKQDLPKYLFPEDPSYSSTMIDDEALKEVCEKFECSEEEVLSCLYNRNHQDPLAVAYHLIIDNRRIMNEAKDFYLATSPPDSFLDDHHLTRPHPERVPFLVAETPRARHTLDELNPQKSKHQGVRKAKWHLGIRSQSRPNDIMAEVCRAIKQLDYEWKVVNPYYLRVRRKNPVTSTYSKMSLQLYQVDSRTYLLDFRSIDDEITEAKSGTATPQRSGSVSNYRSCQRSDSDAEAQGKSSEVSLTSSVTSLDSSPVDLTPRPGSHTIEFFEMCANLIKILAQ
Sequence of Mitogen-activated protein kinase 9 (P45984 whole entry): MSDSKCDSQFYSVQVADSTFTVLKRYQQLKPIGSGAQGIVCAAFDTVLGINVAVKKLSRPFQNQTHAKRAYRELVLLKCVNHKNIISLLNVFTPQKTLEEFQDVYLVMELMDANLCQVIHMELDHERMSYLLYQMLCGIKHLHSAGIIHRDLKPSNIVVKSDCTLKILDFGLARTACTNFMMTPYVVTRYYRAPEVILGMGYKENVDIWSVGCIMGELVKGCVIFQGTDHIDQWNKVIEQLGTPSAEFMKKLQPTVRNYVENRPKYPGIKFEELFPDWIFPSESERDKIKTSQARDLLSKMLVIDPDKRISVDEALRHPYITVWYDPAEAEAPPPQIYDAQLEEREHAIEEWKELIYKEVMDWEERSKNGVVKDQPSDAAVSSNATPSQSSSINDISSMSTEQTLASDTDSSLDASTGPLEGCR
Sequence of Serine/threonine-protein kinase PLK4 (O00444 whole entry): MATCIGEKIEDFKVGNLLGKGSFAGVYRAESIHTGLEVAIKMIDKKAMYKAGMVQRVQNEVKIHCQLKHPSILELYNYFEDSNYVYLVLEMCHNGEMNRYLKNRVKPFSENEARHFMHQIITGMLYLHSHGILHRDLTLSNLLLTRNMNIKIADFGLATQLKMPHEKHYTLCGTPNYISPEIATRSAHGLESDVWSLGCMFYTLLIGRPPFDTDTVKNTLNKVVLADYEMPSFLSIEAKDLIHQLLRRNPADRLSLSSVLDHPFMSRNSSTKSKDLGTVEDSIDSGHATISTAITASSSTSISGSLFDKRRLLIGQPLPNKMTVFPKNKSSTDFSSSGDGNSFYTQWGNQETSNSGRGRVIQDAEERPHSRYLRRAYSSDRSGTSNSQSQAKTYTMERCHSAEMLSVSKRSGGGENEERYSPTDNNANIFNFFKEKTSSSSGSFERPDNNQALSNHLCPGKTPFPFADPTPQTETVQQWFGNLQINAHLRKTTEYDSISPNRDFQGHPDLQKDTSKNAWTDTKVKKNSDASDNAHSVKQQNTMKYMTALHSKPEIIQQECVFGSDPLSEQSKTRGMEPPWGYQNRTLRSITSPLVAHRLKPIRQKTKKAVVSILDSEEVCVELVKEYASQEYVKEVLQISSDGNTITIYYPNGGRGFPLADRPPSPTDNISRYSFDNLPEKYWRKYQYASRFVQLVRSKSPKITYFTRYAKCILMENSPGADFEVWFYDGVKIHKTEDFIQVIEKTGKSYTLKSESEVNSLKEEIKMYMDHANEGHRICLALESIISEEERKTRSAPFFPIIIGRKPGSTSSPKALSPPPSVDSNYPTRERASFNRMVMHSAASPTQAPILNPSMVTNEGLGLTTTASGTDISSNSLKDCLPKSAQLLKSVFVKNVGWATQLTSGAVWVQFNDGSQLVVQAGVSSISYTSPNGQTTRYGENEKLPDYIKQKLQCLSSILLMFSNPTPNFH
Sequence of Activated CDC42 kinase 1 (Q07912 whole entry): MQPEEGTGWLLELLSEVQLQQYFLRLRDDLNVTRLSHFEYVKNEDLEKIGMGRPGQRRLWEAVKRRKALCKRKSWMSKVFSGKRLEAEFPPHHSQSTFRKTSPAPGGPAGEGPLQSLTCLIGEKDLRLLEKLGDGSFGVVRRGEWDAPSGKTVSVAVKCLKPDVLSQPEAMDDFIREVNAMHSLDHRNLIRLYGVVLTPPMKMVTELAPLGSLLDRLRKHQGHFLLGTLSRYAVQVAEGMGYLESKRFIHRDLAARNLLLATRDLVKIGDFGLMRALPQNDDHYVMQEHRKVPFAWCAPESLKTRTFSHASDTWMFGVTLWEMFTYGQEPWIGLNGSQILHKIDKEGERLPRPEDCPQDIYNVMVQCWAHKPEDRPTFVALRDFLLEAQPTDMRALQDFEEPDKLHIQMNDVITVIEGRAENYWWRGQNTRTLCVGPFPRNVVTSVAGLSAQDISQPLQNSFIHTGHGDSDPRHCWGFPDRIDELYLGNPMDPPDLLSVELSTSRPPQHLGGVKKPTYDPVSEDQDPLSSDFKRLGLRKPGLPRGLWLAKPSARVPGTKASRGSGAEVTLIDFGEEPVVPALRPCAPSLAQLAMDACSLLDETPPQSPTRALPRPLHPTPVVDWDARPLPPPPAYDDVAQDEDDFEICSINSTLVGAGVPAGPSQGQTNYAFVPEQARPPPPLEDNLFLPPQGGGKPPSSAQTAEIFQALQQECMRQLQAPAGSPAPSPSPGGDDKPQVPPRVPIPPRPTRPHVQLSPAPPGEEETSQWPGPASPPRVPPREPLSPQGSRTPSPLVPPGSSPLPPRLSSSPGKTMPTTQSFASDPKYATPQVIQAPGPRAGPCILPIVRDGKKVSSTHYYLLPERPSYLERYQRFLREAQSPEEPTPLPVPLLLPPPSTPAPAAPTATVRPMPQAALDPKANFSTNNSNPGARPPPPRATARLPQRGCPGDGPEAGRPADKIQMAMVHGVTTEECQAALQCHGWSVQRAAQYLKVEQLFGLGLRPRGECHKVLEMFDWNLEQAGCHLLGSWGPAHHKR
Sequence of Dual specificity tyrosine-phosphorylation-regulated kinase 3 (O43781 whole entry): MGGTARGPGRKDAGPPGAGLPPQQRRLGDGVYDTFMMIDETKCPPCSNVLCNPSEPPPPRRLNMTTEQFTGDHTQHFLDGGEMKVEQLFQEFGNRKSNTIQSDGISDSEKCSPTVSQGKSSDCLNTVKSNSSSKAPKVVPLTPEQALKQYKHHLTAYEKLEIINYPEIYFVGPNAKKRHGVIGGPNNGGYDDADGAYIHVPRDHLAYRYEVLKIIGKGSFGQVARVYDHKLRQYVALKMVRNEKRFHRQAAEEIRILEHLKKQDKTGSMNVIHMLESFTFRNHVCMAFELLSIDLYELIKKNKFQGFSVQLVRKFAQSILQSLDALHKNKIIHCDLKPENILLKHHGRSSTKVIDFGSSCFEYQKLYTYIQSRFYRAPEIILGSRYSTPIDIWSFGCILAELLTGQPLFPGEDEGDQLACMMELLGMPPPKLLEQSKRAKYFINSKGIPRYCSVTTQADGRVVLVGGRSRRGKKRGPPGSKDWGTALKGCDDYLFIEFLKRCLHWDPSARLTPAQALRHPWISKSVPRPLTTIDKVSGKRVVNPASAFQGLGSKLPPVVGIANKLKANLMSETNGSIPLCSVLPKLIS

**Q.** What does the source list for `O=C1C=C(N2CCOCC2)c2ccccc2C1=O`?
**A.** EC50 (HEK293 [1]): 8.79 µM (active); EC50 [2]: 8.41 µM (active); AC50 [3]: 5.14 µM (active); IC50 (HEK293 [4]): 13.6 µM (active); EC50 [5]: > 120 µM (not active)

**Q.** Which Ki [6] does the source give for `N#Cc1ccc2[nH]c(O)c(-c3ccc(CN4CCOCC4)cn3)c2c1` [AZD-1080] here?
**A.** > 2.51 µM (inactive)

**Q.** And the Ki [7]?
**A.** > 2 µM (inactive)

**Q.** And the Ki [8]?
**A.** > 6.31 µM (inactive)

**Q.** What about the Ki [9] of the same compound?
**A.** > 3.98 µM (inactive)

**Q.** What about the Ki [10] of the same compound?
**A.** > 2.51 µM (inactive)

**Q.** What about the Ki [11] of the same compound?
**A.** > 2.51 µM (inactive)

**Q.** What about the Ki (Activated CDC42 kinase 1) of the same compound?
**A.** > 3.98 µM (inactive)

**Q.** What about the Ki [12] of the same compound?
**A.** > 7.94 µM (inactive)

**Q.** What about the Ki (Aurora kinase B) of the same compound?
**A.** > 3.16 µM (inactive)

**Q.** And the Ki [13]?
**A.** > 3.98 µM (inactive)

**Q.** And the Ki [14]?
**A.** > 3.16 µM (inactive)

**Q.** And the Ki [15]?
**A.** > 7.94 µM (inactive)

**Q.** What about the Ki [16] of the same compound?
**A.** > 2.51 µM (inactive)

**Q.** What about the Ki [17] of the same compound?
**A.** > 3.98 µM (inactive)

**Q.** What about the Ki [18] of the same compound?
**A.** > 1.58 µM (inactive)

**Q.** What about the Ki [19] of the same compound?
**A.** > 10 µM (inactive)

**Q.** And the Ki [20]?
**A.** > 10 µM (inactive)

**Q.** What about the Ki [21] of the same compound?
**A.** > 1.58 µM (inactive)

**Q.** What about the Ki [22] of the same compound?
**A.** 1 µM (active)

**Q.** What about the Ki [23] of the same compound?
**A.** > 3.16 µM (inactive)

**Q.** With `CCc1oc2ccccc2c1C(=O)c1cc(Br)c(O)c(Br)c1` [BENZBROMARONE] as the compound, how does the EC50 [24] read?
**A.** 7.44 µM (active)

**Q.** And the IC50 [25]?
**A.** > 20 µM (inactive)

**Q.** What about the IC50 [26] of the same compound?
**A.** 0.131 µM (active)

**Q.** And the IC50 [27]?
**A.** 1.14 µM (active)

**Q.** What about the EC50 (Streptococcus) of the same compound?
**A.** > 150 µM (not active)
